Reference: patent US11779014B2, “Adjuvants” (SYNGENTA PARTICIPATIONS AG, priority 2017, dated 2023)

Tests used:
[1] = Cloud point measurement (absorbance at 500 nm as a function of temperature); format: physicochemical
Method: Consistent with the standard method for measuring the cloud point of surfactants, the cloud point of each of the above blends was measured at a total concentration of 1% w/w in water using a Perkin Elmer spectrophotometer fitted with a PTP6 temperature controller. The absorbance of the solution at 500 nm wavelength was determined as a function of temperature. The cloud point was recorded as the onset of a rapid increase in absorbance as the solution began to cloud.
Cloud point—the measurements relied on the same method as for ‘Example 1’
Cloud points—were measured using the same method as in Example 1.
(§1) This example provides de-gelling, cloud point and adjuvancy data for dodecyl 23 ethoxylate with n-hexyl cap and hexadecyl 20 ethoxylate with n-hexyl cap Cloud points were measured as described in example 1 for 1% aqueous solutions of the capped and uncapped surfactants both individually and as blends (see Table 30). Degelling temperatures were also measured as outlined in example 1 for 25, 30, 35 and 40% aqueous solutions of the capped and uncapped surfactants both individually and as blends (see Table 31).
(§2) This example provides de-gelling, cloud point and adjuvancy data for oleyl 20 ethoxylate with n-butyl, n-pentyl or benzyl ether caps end capped oleyl 20 ethoxylate. Cloud points were measured as described in example 1 for 1% aqueous solutions of the capped and uncapped surfactants both individually and as blends. Degelling temperatures were also measured as outlined in example 1 for 25, 30, 35 and 40% aqueous solutions o of the capped and uncapped surfactants both individually and as blends.

[2] = test system: Avena fatua (AVEFA); assay: Glasshouse adjuvancy test for pinoxaden on AVEFA; format: in vivo; conditions: pinoxaden 15 g ai/ha; total surfactant 0.2% w/v; 21 days; Example 9, growth stage 12
Method: The efficacy of 1:1 blends of oleyl 20EO with oleyl 20EO with either n-hexanoyl, n-octanoyl or 2-ethyl hexanoyl ester caps as adjuvants for the herbicide pinoxaden was tested in a glasshouse against two weed species, sown into standard soil in pots and cultivated under controlled conditions in a glasshouse (20/16° C. day/night; 16 hours light; 65% humidity). Pinoxaden was added to the spray tank as a standard EC (emulsifiable concentrate) formulation. The plants were sprayed with pinoxaden at rates of 7.5 or 15 grams of pesticide per hectare using a laboratory track sprayer which delivered the aqueous spray composition at a rate of 200 litres per hectare, using a flat fan nozzle (Teejet 11002VS) at 2 bar. The spray solutions also contained the oleyl 20EO alone or in the 1:1 blends with the capped surfactants. The adjuvants were added to the spray solution at a total surfactant rate of 0.2% w/v. All spray solutions also contained 10% w/w of iso-propanol. The weed species and their BBCH growth stage at spraying were Avena fatua (AVEFA; growth stage 13) and Setaria viridis (SETVI; growth stage 13). Each spray test was replicated three times. The test plants were then grown in a glasshouse under controlled conditions (20/16° C. day/night; 16 hours light; 65% humidity) and watered twice a day. The efficacy of the herbicide was assessed visually and expressed as a percentage of the leaf area killed. Samples were assessed at a time period of 21 days following application.
Dodecyl 23EO and hexadecyl 20EO were capped with an n-hexyl ether cap. The efficacy of 1:1 blends of these with their uncapped counterparts were tested as adjuvants for the herbicide pinoxaden was tested in a glasshouse against two weed species, sown into standard soil in pots and cultivated under controlled conditions in a glasshouse (20/16° C. day/night; 16 hours light; 65% humidity). Pinoxaden was added to the spray tank as a standard EC (emulsifiable concentrate) formulation. The plants were sprayed with pinoxaden at a.i. rates of 7.5 or 15 grams per hectare using a laboratory track sprayer which delivered the aqueous spray composition at a rate of 200 litres per hectare, using a flat fan nozzle (Teejet 11002VS) at 2 bar. The spray solutions tested included the capped and uncapped alone or in the 1:1 blends with the capped surfactants. The adjuvants were added to the spray solution at a total surfactant rate of 0.2% w/v. All spray solutions also contained 10% w/w of iso-propanol. The weed species and their BBCH growth stage at spraying was Avena fatua (AVEFA; growth stage 12). Each spray test was replicated three times. The test plants were then grown in a glasshouse under controlled conditions (20/16° C. day/night; 16 hours light; 65% humidity) and watered twice a day. The efficacy of the herbicide was assessed visually and expressed as a percentage of the leaf area killed. Samples were assessed at a time period of 21 days following application.
Oleyl 20EO was capped with -butyl, n-pentyl and n-benzyl caps. The efficacy of 1:1 blends of these with their uncapped counterparts were tested as adjuvants for the herbicide pinoxaden was tested in a glasshouse against two weed species, sown into standard soil in pots and cultivated under controlled conditions in a glasshouse (20/16° C. day/night; 16 hours light; 65% humidity). Pinoxaden was added to the spray tank as a standard EC (emulsifiable concentrate) formulation. The plants were sprayed with pinoxaden at a.i. rates of 7.5 or 15 grams per hectare using a laboratory track sprayer which delivered the aqueous spray composition at a rate of 200 litres per hectare, using a flat fan nozzle (Teejet 11002VS) at 2 bar. The spray solutions tested included the capped and uncapped alone or in the 1:1 blends with the capped surfactants. The adjuvants were added to the spray solution at a total surfactant rate of 0.2% w/v. All spray solutions also contained 10% w/w of iso-propanol.

[3] = De-gelling temperature of aqueous surfactant blends by low shear rheology (Bohlin Gemini rheometer, storage modulus vs temperature); format: physicochemical
Method: The temperatures at which blends of capped and uncapped surfactants de-gel were determined by standard low shear rheology with a Bohlin™ Gemini rheometer. The storage modulus (G′) at 1 Hz was determined at a strain of 0.001-0.002 in a standard C14 cup and bob geometry over a temperature range of 5-70° C., the exact range depending on the de-gelling point of the sample. Plots of storage modulus versus temperature were constructed and the de-gelling temperature was taken to be the point at which the modulus begins to fall rapidly from its high value in the gelled state (typically ca. 10^5 Pa) down to the final value in the de-gelled state (less than 10 Pa). Blends of surfactants were prepared at from 25 to 40% w/w total surfactant concentration in water. Samples were left in an oven at 55° C. for several days to ensure that the mixtures were homogeneous. Samples were placed in the C14 cup and the samples were de-gelled by raising the temperature in the rheometer, the bob was then inserted and the sample was then cooled at 1° C./min, whilst the storage modulus was regularly recorded during the cooling. Once the final temperature had been reached (i.e. when the sample had gelled), the temperature was then increased again and the modulus again recorded. The de-gelling temperature was determined from the increasing temperature cycle.
Degelling temperatures—the measurements relied on the same method as for ‘Example 1’ but just at 30% w/w total surfactant concentration.
De-gelling temperatures were measured using the same method as in Example 1.
as §1, §2

[4] = test system: Chenopodium album (CHEAL); assay: Glasshouse adjuvancy test for nicosulfuron on CHEAL; format: in vivo
Method: (§3) The biological efficacies of blends of an oleyl 20 ethoxylate uncapped surfactant with an oleyl 20 ethoxylate surfactant with an n-hexyl ether cap as adjuvants for the herbicide nicosulfuron were tested in a glasshouse against three weed species sown into standard soil in pots and cultivated under controlled conditions in a glasshouse (24/18° C. day/night; 16 hours light; 65% humidity). Nicosulfuron was added to the spray tank as a standard WG (water dispersible granule) formulation. The plants were sprayed with nicosulfuron at rates of 15 or 60 grams of pesticide per hectare using a laboratory track sprayer which delivered the aqueous spray composition at a rate of 200 litres per hectare, using a flat fan nozzle (Teejet 11002VS) at 2 bar. The adjuvants were added to the spray solution at a total rate of 0.1 or 0.2% w/v in all cases and at extra lower rates for the oleyl 20EO alone and its 1:1 blend with the oleyl 20EO n-hexyl ether to show the dose response to these adjuvants. All spray solutions also contained 10% w/w of iso-propanol. The weed species and their BBCH growth stage at spraying were Chenopodium album (CHEAL; growth stage 15), Digitaria sanguinalis (DIGSA; growth stage 14), and Commelina benghalensis (COMBE; growth stage 14). Each spray test was replicated three times. The test plants were then grown in a glasshouse under controlled conditions (24/18° C. day/night; 16 hours light; 65% humidity) and watered twice a day. The efficacy of the herbicide was assessed visually and expressed as a percentage of the leaf area killed. Samples were assessed at a time period of 21 days following application. The following tables (3-8) show the effect of blends of the two surfactants at a total concentration of 0.2 and 0.1%. In each case the blends were 1:0, 3:1, 1:1, 1:3 and 0:1 w/w of oleyl 20EO:oleyl 20 EO n-hexyl ether.
The biological efficacies of blends of oleyl 20 ethoxylate and oleyl 20EO ethoxylate with a benzoate cap as adjuvants for the herbicide nicosulfuron were tested in a glasshouse using the same method as for ‘Example 1’ but against just two weed species and with just 0.2% w/v total adjuvant concentration. The weed species and their BBCH growth stage at spraying HI were Chenopodium album (CHEAL; growth stage 13-15) and Digitaria sanguinalis (DIGSA; growth stage 14-22).
The biological efficacies of 1:1 blends of an oleyl 20 ethoxylate uncapped surfactant with oleyl 20E ethoxylate surfactants with hexanoyl, n-octanoyl or 2-ethyl hexanoyl ester caps as adjuvants for the herbicide nicosulfuron were tested in a glasshouse using the same method as for ‘Example 1’ but against just one weed species and at 0.2% w/v tital adjuvant concentration. The weed species and its BBCH growth stage at spraying was Chenopodium album (CHEAL; growth stage 15).

[5] = test system: Digitaria sanguinalis (DIGSA); assay: Glasshouse adjuvancy test for nicosulfuron on DIGSA; format: in vivo
Method: as §3, with “ether. The biological efficacies of blends of oleyl 20 ethoxylate and oleyl 20EO ethoxylate with a benzoate cap as adjuvants for the herbicide nicosulfuron were tested in a glasshouse using the same method as for ‘Example 1’ but against just two weed species and with just 0.2% w/v total adjuvant concentration. The weed species and their BBCH growth stage at spraying HI were Chenopodium album (CHEAL; growth stage 13-15) and Digitaria sanguinalis (DIGSA; growth stage 14-22).” for “ether.”

[6] = dose response, nicosulfuron 15 g ai/ha, adjuvant 0%
[7] = dose response, nicosulfuron 60 g ai/ha, adjuvant 0%

Question: With `CCCCCCCC/C=C\CCCCCCCCOCCOCCOCCOCCOCCOCCOCCOCCOCCOCCOCCOCCOCCOCCOCCOCCOCCOCCOCCOCCOCc1ccccc1` [Oleyl 20EO n-benzyl ether] as the compound, how does the Cloud point ([1]; 1% aqueous solutions, Table 34) read?
Answer: 38.7 °C

Question: What about the Mean control [2] of the same compound?
Answer: 89.3%

Question: What about the De-gelling temperature ([3]; total surfactant concentration 25% w/w, Table 35) of the same compound?
Answer: <5 °C

Question: And the De-gelling temperature ([3]; total surfactant concentration 30% w/w, Table 35)?
Answer: <5 °C

Question: What about the De-gelling temperature ([3]; total surfactant concentration 35% w/w, Table 35) of the same compound?
Answer: 5 °C

Question: What about the De-gelling temperature ([3]; total surfactant concentration 40% w/w, Table 35) of the same compound?
Answer: 15.1 °C

Question: With `CCCCCCCC/C=C\CCCCCCCCOCCOCCOCCOCCOCCOCCOCCOCCOCCOCCOCCOCCOCCOCCOCCOCCOCCOCCOCCOCCOC(=O)c1ccccc1` [Oleyl 20EO benzoate, oleyl 20 ethoxylate benzoate] as the compound, how does the Mean control ([4]; nicosulfuron 15 g ai/ha, 0.2% w/v total adjuvant, Example 3, growth stage 13-15) read?
Answer: 75.0%

Question: And the Mean control ([4]; nicosulfuron 60 g ai/ha, 0.2% w/v total adjuvant, Example 3, growth stage 13-15)?
Answer: 81.7%

Question: What about the Mean control ([5]; nicosulfuron 15 g ai/ha, 0.2% w/v total adjuvant, Example 3, growth stage 14-22) of the same compound?
Answer: 96.7%

Question: What about the Mean control ([5]; nicosulfuron 60 g ai/ha, 0.2% w/v total adjuvant, Example 3, growth stage 14-22) of the same compound?
Answer: 99.3%

Question: What about the Cloud point ([1]; 1%, Table 15) of the same compound?
Answer: 27.3 °C

Question: What about the De-gelling temperature ([3]; 30% w/w total surfactant concentration, Table 15) of the same compound?
Answer: <3.8 °C

Question: With `COc1cc(OC)nc(NC(=O)NS(=O)(=O)c2ncccc2C(=O)N(C)C)n1` [nicosulfuron] as the compound, how does the Mean control [4, 6] read?
Answer: 4.0%

Question: What about the Mean control [4, 7] of the same compound?
Answer: 8.3%

Question: What about the Mean control [5, 6] of the same compound?
Answer: 4.0%

Question: What about the Mean control [5, 7] of the same compound?
Answer: 33.3%

Question: With `CCCCCCCC/C=C\CCCCCCCCOCCOCCOCCOCCOCCOCCOCCOCCOCCOCCOCCOCCOCCOCCOCCOCCOCCOCCOCCOCCOC(=O)CCCCC` [Oleyl 20EO n-hexanoyl ester, oleyl 20EO n-hexanoyl ester] as the compound, how does the Cloud point ([1]; 1%, Table 20) read?
Answer: 28.0 °C

Question: What about the Degelling temperature ([3]; total surfactant concentration 40% w/w, Table 18) of the same compound?
Answer: 13.6 °C

Question: With Oleyl 20EO n-butyl ether as the compound, how does the Mean control [2] read?
Answer: 96.3%

Question: For `CCCCCCCC/C=C\CCCCCCCCOCCOCCOCCOCCOCCOCCOCCOCCOCCOCCOCCOCCOCCOCCOCCOCCOCCOCCOCCOCCOC(=O)CCCCCCC` [Oleyl 20EO n-octanoyl ester, oleyl 20EO n-octanoyl ester], which De-gelling temperature ([3]; 40% w/w, Table 19) is on record?
Answer: 16.5 °C
